This note sets out measurements from patent US20260092054A1, “FUSED RING COMPOUND AND PHARMACEUTICAL CONTAINING SAME” (KAKEN PHARMACEUTICAL CO., LTD., priority 2022, published 2026).

For one assay, the target named is T1, human STAT6/pIL-4Rα (Homo sapiens, UniProt P42226).
T1 construct: histidine tag
T1 sequence (P42226 123-658): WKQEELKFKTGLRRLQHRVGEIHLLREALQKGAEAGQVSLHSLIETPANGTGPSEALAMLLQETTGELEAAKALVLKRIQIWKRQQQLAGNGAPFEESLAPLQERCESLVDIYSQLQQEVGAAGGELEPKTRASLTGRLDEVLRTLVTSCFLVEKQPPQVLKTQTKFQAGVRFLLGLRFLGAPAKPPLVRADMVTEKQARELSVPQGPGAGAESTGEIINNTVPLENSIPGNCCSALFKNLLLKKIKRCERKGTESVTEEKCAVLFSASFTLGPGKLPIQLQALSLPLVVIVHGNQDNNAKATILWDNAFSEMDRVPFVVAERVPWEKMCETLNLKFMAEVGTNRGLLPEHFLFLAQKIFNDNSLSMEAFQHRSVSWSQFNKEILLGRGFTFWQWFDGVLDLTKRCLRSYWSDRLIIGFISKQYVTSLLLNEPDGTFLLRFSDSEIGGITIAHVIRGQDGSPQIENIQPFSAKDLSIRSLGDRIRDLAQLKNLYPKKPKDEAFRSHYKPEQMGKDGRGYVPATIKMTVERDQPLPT
Description: Binding inhibitory activity between human STAT6/pIL-4Rα by fluorescence polarization method. To be noted: rhSTAT6 (123-658) / FAM-pIL-4Rα peptide. The protocol: Test Example 1: Measurement of Binding Inhibitory Activity Between Human STAT6/pIL-p 4Rα by Fluorescence Polarization Method
1) Construction of Histidine Tag-Fused Recombinant Human STAT6 (123 to 658 Region)
A histidine tag-fused recombinant human STAT6 (hereinafter referred to as rhSTAT6) expression vector [plasmid DNA in which a nucleic acid sequence containing human STAT6 (123-658 region) was inserted into a pET28a(+) vector (Novagen)] was inserted into E. coli, and the cells were cultured overnight under culturing conditions at 17° C. with IPTG treatment. After disrupting E. coli with a high-pressure homogenizer (EmulsiFlex-C3, manufactured by AVESTIN, Inc.), affinity purification using Ni-NTA agarose (manufactured by Qiagen), cation exchange chromatography using HiTrap® CM-FF (manufactured by GE healthcare), and gel filtration chromatography using Superdex® 200 10/300GL (manufactured by GE healthcare) were performed to obtain rhSTAT6.
2) Measurement of Binding Inhibitory Activity Between Human STAT6/pIL-4Rα by Fluorescence Polarization Method
A DMSO solution of the example compound was diluted with an assay buffer [for example, a buffer containing 50 mmol/L NaCl, 10 mmol/L HEPES (pH 7.0), 1 mmol/L DTT, 1 mmol/L EDTA, and 0.01 vol % NP-40, and the like] to prepare a compound-added solution. The DMSO concentration in the compound addition solution was adjusted to 1 or 2 vol %. 10 μL of the compound addition solution and an assay buffer containing 1 or 2 vol % DMSO were added to each well of a 384-well plate. 5 μL of an assay buffer solution containing rhSTAT6 (rhSTAT6 concentration: for example, 1 μmol/L) or an assay buffer was added to each well of a 384-well plate. After leaving the plate at room temperature for 30 minutes in the dark, 5 μL of an assay buffer solution (FAM-pIL-4Rp concentration: for example, 80 nmol/L) containing FAM-labeled phosphorylated IL-4Rα peptide (sequence: FAM-Ala-pTyr-Lys-Pro-Phe-Gln-Asp-Leu-IIe-NH2) (hereinafter, FAM-pIL-4Rp) or an assay buffer containing 2 vol % DMSO was added to each well of the 384-well plate. The mixture was left to stand at room temperature for 30 minutes in the dark, and then centrifuged (200 g, 1 minute, room temperature). Fluorescence polarization values were measured using Infinite (registered trademark) F500 (manufactured by Tecan Japan Co., Ltd.) (Excitation: 485 nm, Emission: 535 nm). The inhibition rate of each Example compound was calculated according to the following formula using the fluorescence polarization value (A) when rhSTAT6 and FAM-pIL-4Rp were added without adding the Example compound, the fluorescence polarization value (B) when FAM-pIL-4Rp was added without adding the Example compound and rhSTAT6, and the fluorescence polarization value (C) when each Example compound, rhSTAT6, and FAM-pIL-4Rp were added.
In the evaluation of each example compound, the 50% inhibitory concentration (IC50) of each example compound was calculated from a linear function equation of a straight line connecting two points sandwiching 50%.
Background: Fluorescence polarisation rises when a labelled molecule tumbles more slowly, as on binding a larger partner.

A further assay relates to human STAT6. Description: Human STAT6 dependent reporter activity (IL-4 stimulated STAT6 reporter assay using STAT6-HEK293 cells). Type of assay: cell-based. To be noted: Homo sapiens, IL-4 stimulation, luciferase activity, read-out: Inhibition rate (%); for inhibition at 0.1 µM: compound 0.1 μmol/L; for inhibition at 1 µM: compound 1 μmol/L. The protocol: Test Example 2: Measurement of Human STAT6 Dependent Reporter Activity
1) Construction of Human STAT6-HEK293 Cells
HEK 293 cells maintenance cultured by [Penicillin-Streptomycin (Thermo Fisher Scientific) and FBS, 1 vol % and 10 vol % respectively added to DMEM high glucose (Thermo Fisher Scientific)](manufactured by ATCC) were collected, and suspended in 10 mL of 0.5% BSA/PBS. 1×10^6 cells were collected, the supernatant was removed by centrifuging, and the cells were suspended in 100 μL of Nucleofector solution V (manufactured by Lonza K.K.). 2 μg of STAT6 vector [plasmid DNAs incorporating human STAT6 sequences in pcDNA3.1 (Invitrogen)] was added, and the STAT6 vector was introduced into the HEK293 cells using the program Q-001 initially registered in the Nucleofector®2b. A cell line (STAT6-HEK293 cells) consistently expressing STAT6 was acquired by selecting resistant cells in a medium containing Geneticin® (manufactured by Thermo Fisher Scientific). 2) STAT6 reporter assay using STAT6-HEK293 cells 3×10^6 STAT6-HEK293 cells maintained in assay medium [culture medium supplemented with 1 vol % Geneticin®] were harvested and seeded in a 10 cm dish. 3 μg of a STAT6 reporter vector [plasmid in which a sequence containing a STAT6 binding sequence and a C/EBP binding sequence in tandem was incorporated into pGL4.27 (manufactured by Promega Corporation)] and 9 μL of FuGENE® HD transfection reagent (manufactured by Promega Corporation) were added to 500 μL of Opti-MEM® (manufactured by Thermo Fisher Scientific) to prepare transfection solutions. The transfection solution was vortexed and left to stand for about 5 minutes, then added dropwise to the STAT6-HEK293 cells, which were then cultured overnight in a C02 incubator to produce STAT6 reporter cells.
The prepared STAT6 reporter cells were seeded on B&W isoplate-96 TC (PerkinElmer Japan Co., Ltd.) (3×10^4 cells/50 μL/well) and cultured overnight in a C02 incubator (37° C., 5% C02). 50 μL of assay medium was added to each well instead of the STAT6 reporter cells. The compound addition solution was prepared by diluting the DMSO solution of the example compound 250-fold using the assay medium. 20 μL of compound addition solution or 0.4 vol % DMSO-containing assay medium was added to the plate, and the plate was then cultured in a CO2 incubator for 1 hour. 10 μL of 80 ng/mL human IL-4 solution (Peprotech) or assay medium was added to each well, and the cells were cultured in a CO2 incubator for 6 hours.
STAT6 reporter activity was measured using the Bright-Glo® Luciferase Assay System (Promega). 100 μL of Bright-Glo® reagent was added to each well, and luciferase activity was measured using Infinite® F500. The inhibition rate of each Example compound was calculated by the following formula using the luciferase activity value (G) when no Example compound was added and stimulation with IL-4 was performed, the luciferase activity value (H) when no Example compound was added and stimulation with IL-4 was not performed, and the luciferase activity value (I) when each Example compound was treated and stimulation with IL-4 was performed.
Note that the viable cell rate under each condition was 70% or more, and it was determined that the luciferase activity inhibitory activity of each example compound was appropriately evaluated.
On the technique in general: Reporter assays use an easily measured gene product as a stand-in for the process of interest.

As a reminder, the IC50 is the concentration needed to halve the response being measured. What is called inhibition is the relative decrease from the control value, in per cent.

`COCCn1c(-c2ccc(N(C)C(C)=O)cc2)nc2cc(CO)cc(C(=O)Nc3cccc(C(N)=O)c3)c21` [Ex. 213]: on human STAT6/pIL-4Rα, the IC50 was found to be 3.47 µM. As for `CCn1c(-c2ccc(-n3c(C)nn(C)c3=O)cc2)cc2cc(C(F)(F)F)cc(C(=O)Nc3cc[nH]n3)c21` [Ex. 105], the IC50 on human STAT6/pIL-4Rα was 0.78 µM. With `CCn1c(-c2ccc(-n3c(C)nn(C)c3=O)cc2)cc2cc(C(F)(F)F)nc(C(=O)Nc3cccc(C(N)=O)c3)c21` [Ex. 96], the IC50 on human STAT6/pIL-4Rα turned out to be 1.89 µM.

With `COCCn1c(-c2ccc(N(C)C(C)=O)cc2)nc2cc(C(C)C)cc(C(=O)Nc3cccc(C(N)=O)c3)c21` [Ex. 210], the IC50 at human STAT6/pIL-4Rα worked out at 2.74 µM. Compound `CCn1c(-c2ccc(N3C(=O)C(C)CC3C)cc2)nc2cc(C(F)(F)F)cc(C(=O)Nc3cccc(C(N)=O)c3F)c21` (single isomer, unassigned) [Ex. 220] had a concentration for half-maximal inhibition (IC50) on human STAT6/pIL-4Rα of 9.6 µM. `Cc1nn(C)c(=O)n1-c1ccc(-c2cc3ccnc(C(=O)Nc4cccc(C(N)=O)c4F)c3n2CC2CC2)cc1` [Ex. 89] showed an IC50 at human STAT6/pIL-4Rα of 0.94 µM. `CCn1c(-c2ccc(-n3c(C)nn(C)c3=O)cc2)cc2cc(C(F)(F)F)cc(C(=O)Nc3ccc(CC(=O)NC)cc3)c21` [Ex. 104] showed an IC50 at human STAT6/pIL-4Rα of 0.73 µM.

In turn, `COCCn1c(-c2ccc(-n3c(C)nn(C)c3=O)cc2)cc2cc(C(F)(F)F)cc(C(=O)Nc3ccncc3)c21` [Ex. 54] had an IC50 on human STAT6/pIL-4Rα of 3.39 µM. `CCn1c(-c2ccc(-n3c(C)nn(C)c3=O)cc2)cc2cc(C(F)(F)F)cc(C(=O)Nc3ccc4c(c3)NC(=O)C4)c21` [Ex. 101] yielded an IC50 at human STAT6/pIL-4Rα of 4.06 µM. On the same count and under the same terms, the result for `CCn1c(-c2ccc(-n3cnn(C)c3=O)cc2)c(Cl)c2cc(C(F)(F)F)cc(C(=O)Nc3cccc(C(N)=O)c3)c21` [Ex. 141] reads 0.91 µM; that for `CCCc1cc(C(=O)Nc2cccc(C(N)=O)c2)c2c(c1)nc(-c1ccc(N(C)C(C)=O)cc1)n2CCOC` [Ex. 204], 2.35 µM. The same measure, in the same setting: the result for `CCn1c(-c2ccc(-n3c(C)nn(C)c3=O)cc2)cc2ccnc(C(=O)Nc3cccc(C(=O)O)c3)c21` [Ex. 164] reads 0.32 µM; that for `COCCn1c(-c2ccc(-n3c(C)nn(C)c3=O)cc2)cc2cc(C(F)(F)F)cc(C(=O)Nc3nncs3)c21` [Ex. 79], 1.9 µM; that for `COCCn1c(-c2ccc(-n3c(C)nn(C)c3=O)cc2)cc2cc(C(F)(F)F)cc(C(=O)Nc3cccc(NS(C)(=O)=O)n3)c21` [Ex. 217], 0.59 µM. On the same count and under the same terms, for `C#Cc1cc(C(=O)Nc2cccc(C(N)=O)c2)c2c(c1)nc(-c1ccc(N(C)C(C)=O)cc1)n2CCOC` [Ex. 206] the value was 3.62 µM. `COCCn1c(-c2ccc3c(c2)CCOC3C(N)=O)nc2cc(C(F)(F)F)cc(C(=O)Nc3cccc(C(N)=O)c3)c21` (stereo not shown) [Ex. 36]: on human STAT6/pIL-4Rα, the 50% inhibitory concentration (IC50) was determined as 0.4 µM.

The compound `COCCn1c(-c2ccc(-n3c(C)nn(C)c3=O)cc2)cc2cc(C(F)(F)F)cc(C(=O)Nc3cncs3)c21` [Ex. 86] registered an IC50 at human STAT6/pIL-4Rα of 1.78 µM. In turn, `COCCn1c(-c2ccc(N(C)C(C)=O)cc2)nc2cc(CC(C)C)cc(C(=O)Nc3cccc(C(N)=O)c3)c21` [Ex. 211] displayed a half-inhibitory concentration (IC50) on human STAT6/pIL-4Rα of 4.98 µM. The compound `COCCn1c(-c2ccc(-n3c(C)nn(C)c3=O)cc2)cc2ccnc(C(=O)Nc3cccc(C(N)=O)c3)c21` [Ex. 106] yielded a concentration for half-maximal inhibition (IC50) at human STAT6/pIL-4Rα of 1.97 µM. As to `CC1CC(C)N(c2ccc(-c3cc4ccnc(C(=O)Nc5ccc(F)c(C(N)=O)c5)c4n3CC3(C#N)CC3)cc2)C1=O` (single isomer, unassigned) [Ex. 222], the IC50 on human STAT6/pIL-4Rα came out at 3.1 µM. Same read-out and setting: the result for `COCCn1c(-c2ccc3c(c2)CCOC3C(=O)O)nc2cc(C(F)(F)F)cc(C(=O)Nc3cccc(C(N)=O)c3)c21` (stereo not shown) [Ex. 29] reads 0.84 µM; that for `COCCn1c(-c2ccc(N(C)C(C)=O)cc2)nc2cc(CCC(C)(C)OC)cc(C(=O)Nc3cccc(C(N)=O)c3)c21` [Ex. 205], 8.44 µM. For `CCn1c(-c2ccc(-n3c(C)nn(C)c3=O)cc2)cc2cc(C(F)(F)F)cc(C(=O)Nc3ccc(CC(N)=O)cc3)c21` [Ex. 103], the IC50 on human STAT6/pIL-4Rα amounted to 2.66 µM. Consider `COCCn1c(-c2ccc(N(C)C(C)=O)cc2)nc2cc(CC#N)cc(C(=O)Nc3cccc(C(N)=O)c3)c21` [Ex. 214], for which, at human STAT6/pIL-4Rα, the IC50 turned out to be 3.98 µM. Still for that read-out and setting: for `CCn1c(-c2ccc(N3CCCCC3=O)cc2)cc2cc(C(F)(F)F)cc(C(=O)Nc3ccc(F)c(C(N)=O)c3)c21` [Ex. 71] the value was 1.18 µM. Same read-out and setting: the result for `C/C(=C\C(=O)N[C@H](C(=O)N1CCC[C@H]1C(=O)N(C)c1ccccc1)C(C)(C)C)c1ccc(OP(=O)(O)O)cc1` [PM-301H, reference compound] reads 0.27 µM; that for `COCCn1c(-c2ccc(-n3c(C)nn(C)c3=O)cc2)cc2cc(C(F)(F)F)cc(C(=O)Nc3cccc(S(N)(=O)=O)c3)c21` [Ex. 63], 2.53 µM. Consider `CCn1c(-c2ccc(-c3ncon3)cc2)nc2cc(Br)cc(C(=O)Nc3cccc(C(N)=O)c3)c21` [Ex. 7], for which, in the assay with human STAT6, the inhibition at 0.1 µM is 1% and the inhibition at 1 µM is 56%.

Consider `CCn1c(-c2ccc3c(c2)CCOC3C(N)=O)cc2ccnc(C(=O)Nc3ccc(F)c(C(N)=O)c3)c21` (stereo not shown) [Ex. 28], for which, in the assay on human STAT6, the inhibition at 0.1 µM came to 43% and the inhibition at 1 µM was 93%.
